Tests used:
MMP-2 [1] = biological target: T1, MMP-2 (Homo sapiens, UniProt P08253); test: K(obs) of individual phage substrates (set of 1369); assay type: biochemical; details: MMP2
T1 sequence (P08253 110-660): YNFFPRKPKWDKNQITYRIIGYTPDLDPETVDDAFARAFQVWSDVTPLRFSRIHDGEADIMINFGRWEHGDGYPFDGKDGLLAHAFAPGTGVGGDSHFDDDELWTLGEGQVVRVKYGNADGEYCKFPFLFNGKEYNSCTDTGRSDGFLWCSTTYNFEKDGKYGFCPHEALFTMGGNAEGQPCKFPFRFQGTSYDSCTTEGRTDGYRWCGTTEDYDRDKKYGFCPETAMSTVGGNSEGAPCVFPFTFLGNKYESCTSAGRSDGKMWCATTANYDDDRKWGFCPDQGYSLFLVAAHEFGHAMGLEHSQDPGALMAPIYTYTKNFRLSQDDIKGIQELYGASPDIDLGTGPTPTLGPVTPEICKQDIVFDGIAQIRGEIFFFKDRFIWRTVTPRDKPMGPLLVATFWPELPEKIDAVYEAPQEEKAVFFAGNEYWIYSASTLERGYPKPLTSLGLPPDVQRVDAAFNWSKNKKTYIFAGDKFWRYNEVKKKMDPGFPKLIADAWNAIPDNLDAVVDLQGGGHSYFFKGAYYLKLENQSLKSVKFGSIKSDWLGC

MMP-9 = MMP-9 (Homo sapiens, UniProt P14780); test: as above; assay type: biochemical; details: MMP9
MMP-9, sequence (P14780 94-707): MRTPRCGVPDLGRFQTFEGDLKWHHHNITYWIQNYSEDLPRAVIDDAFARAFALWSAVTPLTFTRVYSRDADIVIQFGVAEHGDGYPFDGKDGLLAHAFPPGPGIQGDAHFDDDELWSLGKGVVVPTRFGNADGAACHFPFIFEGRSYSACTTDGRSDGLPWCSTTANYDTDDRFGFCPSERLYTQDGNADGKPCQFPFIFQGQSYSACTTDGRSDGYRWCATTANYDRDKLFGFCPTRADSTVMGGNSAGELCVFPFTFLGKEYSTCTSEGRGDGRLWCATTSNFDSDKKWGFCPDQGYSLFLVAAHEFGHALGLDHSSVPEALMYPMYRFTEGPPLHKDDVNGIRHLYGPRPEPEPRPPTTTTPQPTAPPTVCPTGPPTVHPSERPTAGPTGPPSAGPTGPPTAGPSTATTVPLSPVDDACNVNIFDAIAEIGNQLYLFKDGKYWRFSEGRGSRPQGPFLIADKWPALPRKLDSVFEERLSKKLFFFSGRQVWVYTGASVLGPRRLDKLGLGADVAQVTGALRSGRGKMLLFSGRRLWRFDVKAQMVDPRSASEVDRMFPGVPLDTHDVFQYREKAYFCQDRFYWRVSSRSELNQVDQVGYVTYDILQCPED

MMP-2 [2] = test: Substrate phage display with NGS: relative probability (RP) of P3-P1' tetramer clusters; assay type: biochemical, human; details: MMP2;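 also: ratio of tetramer probability after protease selection to that in naive phage library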
[3] = individual phage substrate of the set of 1369 peptides, cleavage position marked by '-'
[4] = individual phage substrate of the set of 1369 peptides, dash in the sequence marks the cleavage position
[5] = RP of the P3-P1' tetramer contained in the substrate
[6] = individual phage substrates, set of 1369 peptides, cleavage position marked by hyphen in sequence
[7] = individual phage substrates, set of 1369 peptides, hyphen in sequence marks cleavage position
[8] = RP of the P3-P1' tetramer contained in the substrate (substrate phage display with NGS)

| Substance | Kobs (MMP-2 [1]; [3]) | Kobs (MMP-9; [4]) | Kobs (MMP-2 [1]; [6]) | Kobs (MMP-9; [7]) | relative probability (RP) (MMP-2 [2]; [5]) | relative probability (RP) (MMP-2 [2]; [8]) |
| --- | --- | --- | --- | --- | --- | --- |
| SGVRW-YSNTA | 874.197 M⁻¹ s⁻¹ | 5667.28 M⁻¹ s⁻¹ | – | – | 17.3102 | – |
| SGTLN-LYNTA | 0 M⁻¹ s⁻¹ | 0 M⁻¹ s⁻¹ | – | – | 2.764 | – |
| LVGNS-LTASG | – | – | 1981.53 M⁻¹ s⁻¹ | 0 M⁻¹ s⁻¹ | – | 0.2884 |
| SGPQS-WRTTA | – | – | 7815.03 M⁻¹ s⁻¹ | 3165.09 M⁻¹ s⁻¹ | – | 25.7009 |
| PKMSH-LTASG | 2409.72 M⁻¹ s⁻¹ | 0 M⁻¹ s⁻¹ | – | – | 24.6165 | – |
| GQPRS-WRTAS | 9740.44 M⁻¹ s⁻¹ | 8941.32 M⁻¹ s⁻¹ | – | – | 32.796 | – |
| GGSGS-LVLRL | – | – | 1196.62 M⁻¹ s⁻¹ | 1030.73 M⁻¹ s⁻¹ | – | 7.225 |
| TILRN-ITASG | 7815.03 M⁻¹ s⁻¹ | 2837.92 M⁻¹ s⁻¹ | – | – | 19.0698 | – |
| APVLA-LTASG | – | – | 12792.1 M⁻¹ s⁻¹ | 6688.74 M⁻¹ s⁻¹ | – | 13.5229 |
| QRMAS-LTASG | – | – | 10866.7 M⁻¹ s⁻¹ | 551.253 M⁻¹ s⁻¹ | – | 31.6834 |
| ESFAA-LTASG | 12792.1 M⁻¹ s⁻¹ | 56.119 M⁻¹ s⁻¹ | – | – | 18.8584 | – |
| QSPRM-LTASG | 10866.7 M⁻¹ s⁻¹ | 10866.7 M⁻¹ s⁻¹ | – | – | 30.5973 | – |
| SGQRG-IYATA | 2157.02 M⁻¹ s⁻¹ | 3344.37 M⁻¹ s⁻¹ | – | – | 7.484 | – |
| GFSAN-LKTAS | 5667.28 M⁻¹ s⁻¹ | 484.315 M⁻¹ s⁻¹ | – | – | 23.7816 | – |
| RQWRA-LTASG | 5889.62 M⁻¹ s⁻¹ | 4470.66 M⁻¹ s⁻¹ | – | – | 22.4074 | – |
| VRLNY-LTASG | – | – | 4763.33 M⁻¹ s⁻¹ | 0 M⁻¹ s⁻¹ | – | 12.3459 |
| ERSLA-WTASG | 2157.02 M⁻¹ s⁻¹ | 113.394 M⁻¹ s⁻¹ | – | – | 18.2943 | – |
| AHVFA-LTASG | – | – | 4205.91 M⁻¹ s⁻¹ | 8941.32 M⁻¹ s⁻¹ | – | 11.8827 |

| Substance | Kobs (MMP-2 [1]; [3]) | Kobs (MMP-9; [4]) | Kobs (MMP-2 [1]; [6]) | Kobs (MMP-9; [7]) | relative probability (RP) (MMP-2 [2]; [5]) | relative probability (RP) (MMP-2 [2]; [8]) |
| --- | --- | --- | --- | --- | --- | --- |
| SGPAR-LISTA | – | – | 12792.1 M⁻¹ s⁻¹ | 12792.1 M⁻¹ s⁻¹ | – | 34.9166 |
| ETMLA-LTASG | – | – | 484.315 M⁻¹ s⁻¹ | 0 M⁻¹ s⁻¹ | – | 5.6722 |
| GAFRH-LRTAS | 201.585 M⁻¹ s⁻¹ | 0 M⁻¹ s⁻¹ | – | – | 3.942 | – |
| RLPVH-YTASG | 7815.03 M⁻¹ s⁻¹ | 12792.1 M⁻¹ s⁻¹ | – | – | 23.3589 | – |
| REPLT-LTASG | 12792.1 M⁻¹ s⁻¹ | 12792.1 M⁻¹ s⁻¹ | – | – | 24.2603 | – |
| GYPWS-LSTAS | 2218.08 M⁻¹ s⁻¹ | 7015.91 M⁻¹ s⁻¹ | – | – | 28.5684 | – |
| ARLGY-LTASG | 10866.7 M⁻¹ s⁻¹ | 418.952 M⁻¹ s⁻¹ | – | – | 24.8925 | – |
| KTVVW-YTASG | 3165.09 M⁻¹ s⁻¹ | 3850.82 M⁻¹ s⁻¹ | – | – | 9.938 | – |
| SGPYT-LVMTA | – | – | 517.582 M⁻¹ s⁻¹ | 8321.48 M⁻¹ s⁻¹ | – | 16.827 |
| SQPHL-LTASG | – | – | 1816.46 M⁻¹ s⁻¹ | 2097.28 M⁻¹ s⁻¹ | – | 16.4802 |
| FSARS-LTASG | – | – | 8941.32 M⁻¹ s⁻¹ | 4613.14 M⁻¹ s⁻¹ | – | 17.186 |
| GSGWA-LKKVT | – | – | 0 M⁻¹ s⁻¹ | 0 M⁻¹ s⁻¹ | – | 0.09159 |
| GSVWA-LTASG | – | – | 1870.4 M⁻¹ s⁻¹ | 4922.1 M⁻¹ s⁻¹ | – | 12.7502 |
| SGGSG-LRVKR | – | – | 551.253 M⁻¹ s⁻¹ | 231.616 M⁻¹ s⁻¹ | – | 1.9698 |
| VIPRP-LTASG | 12792.1 M⁻¹ s⁻¹ | 12792.1 M⁻¹ s⁻¹ | – | – | 34.3303 | – |
| ACIWS-LTASG | 27.918 M⁻¹ s⁻¹ | 355.093 M⁻¹ s⁻¹ | – | – | 5.404 | – |
| GCVRF-LQTAS | 1239.69 M⁻¹ s⁻¹ | 1071.29 M⁻¹ s⁻¹ | – | – | 15.0438 | – |
| GTVRS-LITAS | – | – | 8941.32 M⁻¹ s⁻¹ | 2476.66 M⁻¹ s⁻¹ | – | 12.3051 |

Now from value to substance, other results behind:

| Kobs (MMP-2 [1]; [3]) | Kobs (MMP-9; [4]) | Kobs (MMP-2 [1]; [6]) | Kobs (MMP-9; [7]) | Substance | relative probability (RP) (MMP-2 [2]; [5]) | relative probability (RP) (MMP-2 [2]; [8]) |
| --- | --- | --- | --- | --- | --- | --- |
| 12792.1 M⁻¹ s⁻¹ | 836.403 M⁻¹ s⁻¹ | – | – | HQWAA-LTASG | 24.4484 | – |
| 12792.1 M⁻¹ s⁻¹ | 12792.1 M⁻¹ s⁻¹ | – | – | GAPRF-LSTAS | 28.4443 | – |
| 12792.1 M⁻¹ s⁻¹ | 12792.1 M⁻¹ s⁻¹ | – | – | VFPMS-LTASG | 32.4868 | – |
| 484.315 M⁻¹ s⁻¹ | 1418.96 M⁻¹ s⁻¹ | – | – | SGVMG-IRITA | 12.4242 | – |
| – | – | 12792.1 M⁻¹ s⁻¹ | 12792.1 M⁻¹ s⁻¹ | QRPAQ-LTASG | – | 32.8467 |
| – | – | 4082.43 M⁻¹ s⁻¹ | 27.918 M⁻¹ s⁻¹ | VYWGN-MTASG | – | 3.723 |
| – | – | 654.784 M⁻¹ s⁻¹ | 0 M⁻¹ s⁻¹ | HIWQN-LTASG | – | 6.292 |
| – | – | 4335.13 M⁻¹ s⁻¹ | 6688.74 M⁻¹ s⁻¹ | GCPLS-LYTAS | – | 33.5282 |
| 12792.1 M⁻¹ s⁻¹ | 12792.1 M⁻¹ s⁻¹ | – | – | SGPTN-LRTTA | 31.0288 | – |
| – | – | 1030.73 M⁻¹ s⁻¹ | 0 M⁻¹ s⁻¹ | PKFSH-MTASG | – | 11.0227 |
| 4082.43 M⁻¹ s⁻¹ | 0 M⁻¹ s⁻¹ | – | – | GGYAG-LRTAS | 20.9112 | – |
| – | – | 3438.54 M⁻¹ s⁻¹ | 5461.43 M⁻¹ s⁻¹ | SGVFW-MRGTA | – | 10.3215 |
| 1870.4 M⁻¹ s⁻¹ | 12792.1 M⁻¹ s⁻¹ | – | – | FGPYA-MTASG | 28.0901 | – |
| 10866.7 M⁻¹ s⁻¹ | 585.336 M⁻¹ s⁻¹ | – | – | GMVQH-LITAS | 22.9738 | – |
| 1660.66 M⁻¹ s⁻¹ | 12792.1 M⁻¹ s⁻¹ | – | – | YSPMD-YTASG | 10.9087 | – |
| 3741.87 M⁻¹ s⁻¹ | 874.197 M⁻¹ s⁻¹ | – | – | GSMNS-LRTAS | 18.7113 | – |
| – | – | 1513.13 M⁻¹ s⁻¹ | 2218.08 M⁻¹ s⁻¹ | AKVMS-LTASG | – | 14.6983 |

| Kobs (MMP-2 [1]; [3]) | Kobs (MMP-9; [4]) | Kobs (MMP-2 [1]; [6]) | Kobs (MMP-9; [7]) | Substance | relative probability (RP) (MMP-2 [2]; [5]) | relative probability (RP) (MMP-2 [2]; [8]) |
| --- | --- | --- | --- | --- | --- | --- |
| – | – | 0 M⁻¹ s⁻¹ | 0 M⁻¹ s⁻¹ | SGWSN-LMRTA | – | 17.9326 |
| – | – | 1239.69 M⁻¹ s⁻¹ | 5090.5 M⁻¹ s⁻¹ | SGPFF-LRKTA | – | 12.8224 |
| – | – | 386.839 M⁻¹ s⁻¹ | 0 M⁻¹ s⁻¹ | SGYMS-LIATA | – | 0.07249 |
| – | – | 3438.54 M⁻¹ s⁻¹ | 4613.14 M⁻¹ s⁻¹ | SLVLN-MTASG | – | 19.025 |
| 12792.1 M⁻¹ s⁻¹ | 12792.1 M⁻¹ s⁻¹ | – | – | SGPKS-LVRTA | 32.0343 | – |
| 4613.14 M⁻¹ s⁻¹ | 323.705 M⁻¹ s⁻¹ | – | – | GIVGM-LQTAS | 28.5913 | – |
| – | – | 7386.83 M⁻¹ s⁻¹ | 1561.44 M⁻¹ s⁻¹ | SGHQN-LMATA | – | 17.7487 |
| – | – | 12792.1 M⁻¹ s⁻¹ | 12792.1 M⁻¹ s⁻¹ | SQPTG-LTASG | – | 33.1098 |
| 12792.1 M⁻¹ s⁻¹ | 10866.7 M⁻¹ s⁻¹ | – | – | FNPIH-LTASG | 26.4106 | – |
| – | – | 0 M⁻¹ s⁻¹ | 0 M⁻¹ s⁻¹ | GAWHN-MRTAS | – | 0 |
| – | – | 0 M⁻¹ s⁻¹ | 0 M⁻¹ s⁻¹ | GFFLH-LTTAS | – | 0.8093 |
| 1711.63 M⁻¹ s⁻¹ | 690.17 M⁻¹ s⁻¹ | – | – | SEWQG-LTASG | 12.939 | – |
| 12792.1 M⁻¹ s⁻¹ | 1030.73 M⁻¹ s⁻¹ | – | – | VHFAS-LTASG | 15.5827 | – |
| – | – | 12792.1 M⁻¹ s⁻¹ | 1327.88 M⁻¹ s⁻¹ | GNVAN-LTASG | – | 34.9662 |
| – | – | 12792.1 M⁻¹ s⁻¹ | 386.839 M⁻¹ s⁻¹ | QHWGG-LTASG | – | 21.3794 |
| 1327.88 M⁻¹ s⁻¹ | 4922.1 M⁻¹ s⁻¹ | – | – | GYPWA-WRTAS | 10.3227 | – |
| 10866.7 M⁻¹ s⁻¹ | 0 M⁻¹ s⁻¹ | – | – | AHYAS-LTASG | 26.9916 | – |

Source: publication PMC7932537, “Quantitative profiling of protease specificity” (PLoS Computational Biology, 2021)
